biological target: T1, LPA1R (Homo sapiens, UniProt Q92633); test: Calcium flux assay: inhibition of LPA-stimulated Ca2+ flux (FLIPR, antagonist mode); assay type: cell-based; settings: LPA1R Ca2+ flux functional assay, LPA1R expressing cells challenged with EC80 of LPA, read-out: LPA1 R Antagonist Activity
T1 construct: host or cells: LPA1R expressing cells (Millipore, GPCR Profiler)
Method: Inhibition of LPA-stimulated Ca^2+ flux was used to assess compound potency using FLIPR technology in a 96 well plate format. The assay buffer used was a modified Hanks Balanced Salt Solution (HBSS) where HBSS was supplemented to contain 20 mM HEPES and 2.5 mM Probenecid at pH7.4 (Millipore, GPCR Profiler®). LPA1R expressing cells (Millipore) were plated and prepared 24 hours prior to assay of test articles. Ca^2+ ion flux was assessed from fluorescence of a Fluo-based No Wash Ca^2+ dye. Antagonist data are generated from plates with LPA concentrations sufficient to generate 80% efficacy [EC80]. Percentage inhibition was calculated from a reduction of efficacy according to concentration of compounds of Formula I-VI. For dose responses the inhibition data was used to calculate compound IC50.
The agonist assay was conducted on a FLIPR^TETRA instrument where the test compound(s), vehicle controls, and reference agonist were added to the assay plate after a fluorescence baseline was established. The agonist assay was a total of 180 seconds and was used to assess each compound's ability to activate each GPCR assayed. Upon completion of the agonist assay, the assay plate was removed from the FLIPR^TETRA and incubated at 25° C. for seven (7) minutes. After the incubation period, the assay plate was placed back in the FLIPR^TETRA and the antagonist assay was initiated.
Antagonist Assay: Using EC80 potency values determined during the agonist assay, all pre-incubated sample compound wells were challenged with EC80 concentration of reference agonist after establishment of a fluorescence baseline. The antagonist assay was conducted using the same assay plate that was used for the agonist assay. The antagonist assay was conducted on a FLIPR^TETRA instrument where 9 vehicle controls and EC80 concentration of reference agonist were added to appropriate wells. The antagonist assay was a total of 180 seconds and was used to assess each compound's ability to inhibit each GPCR assayed.
Data Processing: All assay plate data were subjected to appropriate baseline corrections. After baseline corrections were applied, maximum fluorescence values were exported and data processed to calculate percentage activation (relative to Emax reference agonist and vehicle control values), percentage inhibition (relative to EC80 and vehicle control values), and additional statistical values (i.e. Z′, percentage variation between replicate data values) to assess the quality of each plate. Where assay plate data were rejected, additional experiments were conducted. All dose response curves were generated using GraphPad Prism. The curves were fit by utilizing “Sigmoidal Dose Response (Variable Slope)” equation where the bottom parameter was fixed to “0.” Where appropriate, the top parameter was fixed to “100” to better predict potency values when a full curve was not generated by the concentrations assayed.

T1 sequence (Q92633 whole entry): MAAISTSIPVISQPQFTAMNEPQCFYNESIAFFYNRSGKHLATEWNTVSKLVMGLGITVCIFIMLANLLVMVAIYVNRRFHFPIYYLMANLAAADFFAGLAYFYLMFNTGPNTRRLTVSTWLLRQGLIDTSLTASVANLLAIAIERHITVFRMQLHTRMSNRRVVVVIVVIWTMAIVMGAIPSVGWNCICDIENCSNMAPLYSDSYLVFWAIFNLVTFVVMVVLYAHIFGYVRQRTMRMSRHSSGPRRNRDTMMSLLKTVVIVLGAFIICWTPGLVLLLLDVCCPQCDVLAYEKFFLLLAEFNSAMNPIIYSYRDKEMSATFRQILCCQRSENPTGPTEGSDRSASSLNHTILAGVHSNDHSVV

Row | Structure (SMILES) | IC50
1 | C[C@@H](OC(=O)Nc1c(C#N)cnn1-c1ccc(-c2ccc(C(C)(C)C(=O)O)cc2)cc1)c1ccccc1Cl [Compound 27, (R)-2-(4′-(5-(((1-(2-chlorophenyl)ethoxy)carbonyl)amino)-4-cyano-1H-pyrazol-1-yl)-[1,1′-biphenyl]-4-yl)-2-methylpropanoic acid] | < 300 nM
2 | C[C@@H](OC(=O)Nc1c(F)cnn1-c1ccc(-c2ccc(C3(C(=O)O)CC3)cc2F)cc1)c1ccccc1 [Compound 8, (R)-1-(2-fluoro-4′-(4-fluoro-5-(((1-phenylethoxy)carbonyl)amino)-1H-pyrazol-1-yl)-[1,1′-biphenyl]-4-yl)cyclopropane-1-carboxylic acid] | < 300 nM
3 | C[C@@H](OC(=O)Nc1c(Cl)cnn1-c1ccc(-c2ccc(C3(c4nnn[nH]4)CC3)cc2)cc1)c1ccccc1 [Compound 22, (R)-1-phenylethyl (1-(4′-(1-(1H-tetrazol-5-yl)cyclopropyl)-[1,1′-biphenyl]-4-yl)-4-chloro-1H-pyrazol-5-yl)carbamate] | < 300 nM
4 | C[C@@H](OC(=O)Nc1c(F)cnn1-c1ccc(-c2ccc(C3(C(=O)O)CC3)cc2)nc1)c1ccccc1Cl [Compound 1, (R)-1-(4-(5-(5-(((1-(2-chlorophenyl)ethoxy)carbonyl)amino)-4-fluoro-1H-pyrazol-1-yl)pyridin-2-yl)phenyl)cyclopropane-1-carboxylic acid] | < 300 nM
